A value given as a limit tells only on which side of the number the result lay.

Series [1] can be described thus: Microsomal stability assay, liver microsome half-life (rat). The class given is in vitro ADME. The note with it: pH 7.4; rat liver microsomes 0.5 mg/mL + NADPH, 1 μM compound, 37° C; read-out: Liver microsome + NADPH T½ (min) Rat. Background: Liver microsomes are a subcellular fraction often used to study metabolism.
A short description of series [2]: Microsomal stability assay, liver microsome half-life (dog). It counts as in vitro ADME. The settings on record: pH 7.4; dog liver microsomes 0.5 mg/mL + NADPH, 1 μM compound, 37° C; read-out: Liver microsome + NADPH T½ (min) Dog.
Series [3] is described as follows: Microsomal stability assay, liver microsome half-life (human). The class given is in vitro ADME. The note with it: pH 7.4; human liver microsomes 0.5 mg/mL + NADPH, 1 μM compound, 37° C; read-out: Liver microsome + NADPH T½ (min) Human.
The target of a further series is T1, androgen receptor (AR) (Homo sapiens, UniProt P10275).
T1 sequence (P10275 1-920 T878A): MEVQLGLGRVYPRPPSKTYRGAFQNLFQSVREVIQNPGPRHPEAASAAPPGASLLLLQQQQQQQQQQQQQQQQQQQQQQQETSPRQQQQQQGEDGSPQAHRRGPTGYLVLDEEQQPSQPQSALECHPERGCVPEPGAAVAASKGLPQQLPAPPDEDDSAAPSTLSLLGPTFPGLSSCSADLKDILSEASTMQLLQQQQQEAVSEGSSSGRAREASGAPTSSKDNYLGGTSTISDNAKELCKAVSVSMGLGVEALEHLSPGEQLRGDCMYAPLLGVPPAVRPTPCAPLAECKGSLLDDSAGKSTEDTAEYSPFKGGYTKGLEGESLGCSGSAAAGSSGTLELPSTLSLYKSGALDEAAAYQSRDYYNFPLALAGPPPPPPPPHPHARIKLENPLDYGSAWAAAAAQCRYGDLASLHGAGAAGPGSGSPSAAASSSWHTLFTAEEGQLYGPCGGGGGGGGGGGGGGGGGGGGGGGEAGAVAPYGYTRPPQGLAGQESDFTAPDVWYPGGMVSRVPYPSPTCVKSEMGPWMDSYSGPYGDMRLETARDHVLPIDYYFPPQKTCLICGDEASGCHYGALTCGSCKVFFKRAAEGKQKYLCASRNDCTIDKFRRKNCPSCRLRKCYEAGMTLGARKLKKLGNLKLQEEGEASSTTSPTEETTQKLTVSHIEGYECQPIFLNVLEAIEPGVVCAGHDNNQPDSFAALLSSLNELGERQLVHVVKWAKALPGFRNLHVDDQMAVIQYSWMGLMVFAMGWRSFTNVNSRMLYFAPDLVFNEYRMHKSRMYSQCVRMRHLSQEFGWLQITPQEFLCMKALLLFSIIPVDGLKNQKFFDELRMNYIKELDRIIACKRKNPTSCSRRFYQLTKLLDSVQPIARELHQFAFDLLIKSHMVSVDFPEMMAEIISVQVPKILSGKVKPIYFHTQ
Put plainly: Androgen-induced PSA-luciferase assay, Luciferase Assay B (cells stably expressing ARR2PB or PSA-firefly luciferase reporter, 384-well). The class given is cell-based. The note with it: Luciferase Assay B (Compounds A186-A219 and A221-A245); stable luciferase reporter cells, 1 h pretreatment, R1881 24 h, serum-free; read-out: PSA-Luc IC50 Range. (In general: Reporter assays use an easily measured gene product as a stand-in for the process of interest.)

The nature of series [4]: Microsomal stability assay, liver microsome half-life (monkey). The class given is in vitro ADME. The settings on record: pH 7.4; monkey liver microsomes 0.5 mg/mL + NADPH, 1 μM compound, 37° C; read-out: Liver microsome + NADPH T½ (min) Monkey.
Series [5] is described as follows: Microsomal stability assay, liver microsome half-life (mouse). The class given is in vitro ADME. The settings on record: pH 7.4; mouse liver microsomes 0.5 mg/mL + NADPH, 1 μM compound, 37° C; read-out: Liver microsome + NADPH T½ (min) Mouse.

For `CS(=O)(=O)Nc1nc2ccc(-c3ccc(Oc4cc(Cl)c(OC5CC5)c(C#N)c4)cc3)cc2cc1F` [Compound A191], the half-life at 1 μM in series [1], in series [2], in series [3], in series [4] and in series [5] was > 120 min each time. Moreover, the IC50 on androgen receptor (AR) is 500 to 2000 nM.

As to `CS(=O)(=O)Nc1cnc2cc(-c3ccc(Oc4cc(C#N)c(OC5CC5)c(C#N)c4)cc3)ccc2n1` [Compound A198], the half-life at 1 μM in series [1], in series [2], in series [3], in series [4] and in series [5] was > 120 min throughout. Besides, the IC50 on androgen receptor (AR) is < 500 nM.

`CS(=O)(=O)Nc1cnc2cc(-c3ccc(N(CC(F)(F)F)c4cc(F)c(OC5CC5)c(C#N)c4)cc3)ccc2n1` [Compound A199]: the half-life at 1 μM in series [1], in series [2], in series [3], in series [4] and in series [5] was > 120 min throughout. For the same molecule, at androgen receptor (AR), the IC50 is < 500 nM.

`CS(=O)(=O)Nc1nccc(COc2ccc(N(CC(F)(F)F)c3cc(Cl)c(OC4CC4)c(C#N)c3)cc2)n1` [Compound A202]: the half-life at 1 μM in series [1], in series [2], in series [3], in series [4] and in series [5] was > 120 min throughout. Also, the half-maximal inhibitory concentration (IC50) on androgen receptor (AR) is < 500 nM.

As to `CS(=O)(=O)Nc1cnc2cc(-c3ccc(N(CC(F)(F)F)c4cnc(OC5CC5)c(C#N)c4)cc3)ccc2n1` [Compound A203, N-(6-(4-((5-cyano-6-cyclopropoxypyridin-3-yl)(2,2,2-trifluoroethyl)amino)phenyl)quinoxalin-2-yl)methanesulfonamide], the half-life at 1 μM in series [1], in series [2], in series [3], in series [4] and in series [5] was > 120 min each time. In addition, the IC50 at androgen receptor (AR) was < 500 nM.

Take `N#Cc1cc(Oc2ccc(-c3ccc4nc(N5CC(O)C5)cnc4c3)cc2)cc(Cl)c1OC1CC1` [Compound A205]: the half-life at 1 μM in series [1], in series [2], in series [3], in series [4] and in series [5] was > 120 min throughout. Further, the half-inhibitory concentration (IC50) at androgen receptor (AR) lay within 500 to 2000 nM.

For the molecule `CN(c1ccc(-c2ccc3nc(NS(C)(=O)=O)cnc3c2)cc1)c1cc(F)c(OC2CC2)c(C#N)c1` [Compound A208], the half-life at 1 μM in series [1], in series [2], in series [3], in series [4] and in series [5] was > 120 min each time. The IC50 at androgen receptor (AR) was < 500 nM.

As usually defined, the IC50 is the concentration at which inhibition is half-maximal.

The values are drawn from patent US20230373934A1, “ANDROGEN RECEPTOR MODULATORS AND METHODS FOR THEIR USE” (ESSA Pharma, Inc., priority 2022, published 2023).
